Measurements reported in ChEMBL document CHEMBL4308841, “Synthesis, in vitro antiproliferative activity, and kinase inhibitory effects of pyrazole-containing diarylureas and diarylamides” (Eur J Med Chem, 2018).

Assays:
SF-268 = test: Growth inhibition of human SF268 cells assessed as cell growth at 0.01 uM incubated for 48 hrs by sulforhodamine B assay relative to control; type: functional; conditions: SF-268, 48 h, read-out: Activity
CCRF-CEM = test: Growth inhibition of human CCRF-CEM cells assessed as cell growth at 0.1 uM incubated for 48 hrs by sulforhodamine B assay relative to control; type: functional; conditions: read-out: Activity
NCI-H460 [1] = test: Growth inhibition of human NCI-H460 cells assessed as cell growth at 1 uM incubated for 48 hrs by sulforhodamine B assay relative to control; type: functional; conditions: NCI-H460, 48 h, read-out: Activity
SK-OV-3 = test: Growth inhibition of human SKOV3 cells assessed as cell growth at 100 uM incubated for 48 hrs by sulforhodamine B assay relative to control; type: functional; conditions: SK-OV-3, 48 h, read-out: Activity
HCT-15 = test: Growth inhibition of human HCT15 cells assessed as cell growth at 0.01 uM incubated for 48 hrs by sulforhodamine B assay relative to control; type: functional; conditions: HCT-15, 48 h, read-out: Activity
Malme-3M = test: Growth inhibition of human MALME-3M cells incubated for 48 hrs by sulforhodamine B assay; type: functional, cell-based
UO-31 [2] = test: Growth inhibition of human UO31 cells assessed as cell growth at 0.1 uM incubated for 48 hrs by sulforhodamine B assay relative to control; type: functional; conditions: UO-31, 48 h, read-out: Activity
ACHN [3] = test: Growth inhibition of human ACHN cells assessed as cell growth at 0.1 uM incubated for 48 hrs by sulforhodamine B assay relative to control; type: functional; conditions: read-out: Activity
MDA-MB-231 = test: Growth inhibition of human MDA-MB-231 cells assessed as cell growth at 1 uM incubated for 48 hrs by sulforhodamine B assay relative to control; type: functional; conditions: MDA-MB-231, 48 h, read-out: Activity
786-0 = test: Growth inhibition of human 786-0 cells assessed as cell growth at 100 uM incubated for 48 hrs by sulforhodamine B assay relative to control; type: functional; conditions: 786-0, 48 h, read-out: Activity
HCC 2998 = test: Growth inhibition of human HCC2998 cells assessed as cell growth at 0.01 uM incubated for 48 hrs by sulforhodamine B assay relative to control; type: functional; conditions: HCC 2998, 48 h, read-out: Activity
MDA-MB-435 = test: Growth inhibition of human MDA-MB-435 cells assessed as cell growth at 1 uM incubated for 48 hrs by sulforhodamine B assay relative to control; type: functional; conditions: MDA-MB-435, 48 h, read-out: Activity
CAKI-1 [4] = test: Growth inhibition of human Caki1 cells incubated for 48 hrs by sulforhodamine B assay; type: functional, cell-based; conditions: CAKI-1, 48 h
RPMI-8226 [5] = test: Growth inhibition of human RPMI8226 cells incubated for 48 hrs by sulforhodamine B assay; type: functional, cell-based; conditions: RPMI-8226, 48 h
MCF7 [6] = test: Growth inhibition of human MCF7 cells assessed as cell growth at 0.1 uM incubated for 48 hrs by sulforhodamine B assay relative to control; type: functional; conditions: MCF7, 48 h, read-out: Activity
MCF7 [7] = test: Growth inhibition of human MCF7 cells assessed as cell growth at 100 uM incubated for 48 hrs by sulforhodamine B assay relative to control; type: functional; conditions: MCF7, 48 h, read-out: Activity
ACHN [8] = test: Growth inhibition of human ACHN cells assessed as cell growth at 1 uM incubated for 48 hrs by sulforhodamine B assay relative to control; type: functional; conditions: read-out: Activity
NCI-H322M [9] = test: Growth inhibition of human NCI-H322M cells incubated for 48 hrs by sulforhodamine B assay; type: functional, cell-based
NCI-H322M [10] = test: Growth inhibition of human NCI-H322M cells assessed as cell growth at 1 uM incubated for 48 hrs by sulforhodamine B assay relative to control; type: functional; conditions: read-out: Activity
HOP-62 = test: Growth inhibition of human HOP62 cells assessed as cell growth at 0.1 uM incubated for 48 hrs by sulforhodamine B assay relative to control; type: functional; conditions: HOP-62, 48 h, read-out: Activity
SF-295 = test: Growth inhibition of human SF295 cells incubated for 48 hrs by sulforhodamine B assay; type: functional, cell-based; conditions: SF-295, 48 h
NCI-H522 = test: Growth inhibition of human NCI-H522 cells assessed as cell growth at 1 uM incubated for 48 hrs by sulforhodamine B assay relative to control; type: functional; conditions: NCI-H522, 48 h, read-out: Activity
NCI-H460 [11] = test: Growth inhibition of human NCI-H460 cells assessed as cell growth at 100 uM incubated for 48 hrs by sulforhodamine B assay relative to control; type: functional; conditions: NCI-H460, 48 h, read-out: Activity
OVCAR-8 = test: Growth inhibition of human OVCAR8 cells incubated for 48 hrs by sulforhodamine B assay; type: functional, cell-based; conditions: OVCAR-8, 48 h
HCT-116 = test: Growth inhibition of human HCT116 cells assessed as cell growth at 1 uM incubated for 48 hrs by sulforhodamine B assay relative to control; type: functional; conditions: HCT-116, 48 h, read-out: Activity
RPMI-8226 [12] = test: Growth inhibition of human RPMI8226 cells assessed as cell growth at 0.01 uM incubated for 48 hrs by sulforhodamine B assay relative to control; type: functional; conditions: RPMI-8226, 48 h, read-out: Activity
NCI-H460 [13] = test: Growth inhibition of human NCI-H460 cells assessed as cell growth at 0.01 uM incubated for 48 hrs by sulforhodamine B assay relative to control; type: functional; conditions: NCI-H460, 48 h, read-out: Activity
CAKI-1 [14] = test: Growth inhibition of human Caki1 cells assessed as cell growth at 100 uM incubated for 48 hrs by sulforhodamine B assay relative to control; type: functional; conditions: CAKI-1, 48 h, read-out: Activity
UO-31 [15] = test: Growth inhibition of human UO31 cells assessed as cell growth at 100 uM incubated for 48 hrs by sulforhodamine B assay relative to control; type: functional; conditions: UO-31, 48 h, read-out: Activity
[16] = read-out: LC50 (the source's name)
[17] = read-out: pLC50 (the source's name) (converted)

## O=C(Nc1cccc(-n2cc(-c3ccncc3)c(-c3cc(O)cc(Cl)c3)n2)c1)Nc1ccc(Cl)c(Cl)c1
SF-268
  growth at 0.01 µM: 94%
CCRF-CEM
  growth at 0.1 µM: 95%
NCI-H460 [1]
  growth at 1 µM: 58%
SK-OV-3
  growth at 100 µM: -22%
HCT-15
  growth at 0.01 µM: 59%
Malme-3M; read-out: GI50
  GI50: 1 µM
Malme-3M; [16]
  CC50: > 100 µM
Malme-3M; read-out: TGI
  TGI: 54 µM
Malme-3M; read-out: pGI50 (converted)
  GI50: 1.78 µM
Malme-3M; [17]
  CC50: > 100 µM
Malme-3M; read-out: pTGI (converted)
  TGI: 5.25 µM
UO-31 [2]
  growth at 0.1 µM: 93%
ACHN [3]
  growth at 0.1 µM: 95%
MDA-MB-231
  growth at 1 µM: 50%
786-0
  growth at 100 µM: -58%
HCC 2998
  growth at 0.01 µM: 104%
MDA-MB-435
  growth at 1 µM: 79%
CAKI-1 [4]; read-out: GI50
  GI50: 2.21 µM
CAKI-1 [4]; [16]
  CC50: > 100 µM
CAKI-1 [4]; read-out: TGI
  TGI: 70.1 µM
CAKI-1 [4]; read-out: pGI50 (converted)
  GI50: 2.19 µM
CAKI-1 [4]; [17]
  CC50: > 100 µM
CAKI-1 [4]; read-out: pTGI (converted)
  TGI: 7.08 µM
RPMI-8226 [5]
  IC50: 1.44 µM
RPMI-8226 [5]; read-out: GI50
  GI50: 1.44 µM
RPMI-8226 [5]; [16]
  CC50: > 100 µM
RPMI-8226 [5]; read-out: TGI
  TGI: 43 µM
RPMI-8226 [5]; read-out: pGI50 (converted)
  GI50: 1.45 µM
RPMI-8226 [5]; [17]
  CC50: > 100 µM
RPMI-8226 [5]; read-out: pTGI (converted)
  TGI: 4.27 µM
MCF7 [6]
  growth at 0.1 µM: 97%
MCF7 [7]
  growth at 100 µM: -2%
ACHN [8]
  growth at 1 µM: 79%
NCI-H322M [9]; read-out: GI50
  GI50: 1.78 µM
NCI-H322M [9]; [16]
  CC50: > 100 µM
NCI-H322M [9]; read-out: TGI
  TGI: 76.1 µM
NCI-H322M [9]; read-out: pGI50 (converted)
  GI50: 1.78 µM
NCI-H322M [9]; [17]
  CC50: > 100 µM
NCI-H322M [9]; read-out: pTGI (converted)
  TGI: 7.76 µM
NCI-H322M [10]
  growth at 1 µM: 59%
HOP-62
  growth at 0.1 µM: 97%
SF-295; read-out: GI50
  GI50: 1.7 µM
SF-295; [16]
  CC50: 4.4 µM
SF-295; read-out: TGI
  TGI: 45 µM
SF-295; read-out: pGI50 (converted)
  GI50: 1.7 µM
SF-295; [17]
  CC50: 43.7 µM
SF-295; read-out: pTGI (converted)
  TGI: 4.57 µM
NCI-H522
  growth at 1 µM: 54%
NCI-H460 [11]
  growth at 100 µM: -48%
OVCAR-8; read-out: GI50
  GI50: 2.02 µM
OVCAR-8; [16]
  CC50: > 100 µM
OVCAR-8; read-out: TGI
  TGI: 50.6 µM
OVCAR-8; read-out: pGI50 (converted)
  GI50: 2 µM
OVCAR-8; [17]
  CC50: > 100 µM
OVCAR-8; read-out: pTGI (converted)
  TGI: 5.01 µM
HCT-116
  growth at 1 µM: 82%
RPMI-8226 [12]
  growth at 0.01 µM: 104%
NCI-H460 [13]
  growth at 0.01 µM: 102%
CAKI-1 [14]
  growth at 100 µM: -12%
UO-31 [15]
  growth at 100 µM: -27%
